EC50 data for 28 compounds are collected here from patent publication US20150232509A1, “SPIRO RING COMPOUNDS AS HEPATITIS C VIRUS (HCV) INHIBITORS” (SUNSHINE LAKE PHARMA CO., LTD., priority 2012, published 2015).

One assay has as its system HCV GT1a replicon cells. As to the kind of experiment: HCV Replicon assay, GT1a replicon cells (Luciferase / NEO qPCR). Format: cell-based. The following applies: Hepatitis C virus, 72 hours incubation, read-out: EC50 against HCV 1a genotype. The method, then:
(§1) An HCV Replicon assay was utilized in the present invention, and was prepared, developed and validated as described in Science, 1999, 285 (5424), 110-3 and J. Virol., 2003, 77 (5), 3007-19.
(§2) HCV GT1a, GT1b and GT2a replicon cells were used to test the currently described compound series as well as wild-type cells HCV 1b and resistant cells Y93H, L31F, P32L and 1302V. […]
(§3) The GT1a cells and GT1b cells were seeded into 96-well plates (8,000 cells in 125 μL/well) respectively; each compound was diluted to desired concentration using 5-fold serial dilutions protocol, 10 doses in duplicate, and added to wells with POD™ 810 Plate Assembler. The final concentration of DMSO was 0.5%; the plates were incubated in a CO2 incubator for 72 hours; after that, 40 μL of Luciferase assay substrate (Promega Bright-Glo) was added to each well, and detected by a chemiluminescence detection system (Topcount Microplate Scintillation and Luminescence Counter) 5 minutes later; data analysis.
(§4) The GT1a cells and GT1b cells were seeded into 96-well plates (8,000 cells in 125 μL/well) respectively; each compound was diluted to desired concentration using 5-fold serial dilutions protocol, 10 doses in duplicate, and added to wells with POD™ 810 Plate Assembler., the final concentration of DMSO was 0.5%; the cells were incubated in a CO2 incubator for 72 hours; quantitative PCR. • Sample preparation: the supernatant was removed, 100 μL of FCW buffer solution was added to each well, washed carefully and discarded the solution; 50 μL of lysate FCP was added to each well, the cells was lysed as PCR template and PCR template was diluted with DEPC water as sample template. • Quantitative PCR: preparation of reaction mixture according to PCR system; the reaction mixture was dispensed into a 384-well PCR reaction plate (specially for quantitative); and a standard template which was diluted in proportion was distributed into the plate; and the sample template was distributed into the plate; then the 384-well plate was sealed with closure plate membrane; the […] PCR machine was operated by procedures; data analysis. 3. Data Processing: the EC50 Values of Compounds were Analyzed by GraphPad Prism Software.
Background: A replicon is a self-replicating genome or part of one, used to study replication in cells.

Another assay concerns HCV GT1b replicon cells. As to the kind of experiment: HCV Replicon assay, GT1b replicon cells (Luciferase / NEO qPCR). Format: cell-based. Conditions: Hepatitis C virus, 72 hours incubation, read-out: EC50 against HCV 1b genotype. The method, then:
as §1, §2, §3, §4

Consider `COC(=O)N[C@H](C(=O)N1C[C@@H](C)C[C@H]1c1ncc(-c2ccc(-c3ccc(-c4cnc([C@@H]5C[C@H](C)CN5C(=O)[C@@H](NC(=O)OC)C(C)C)[nH]4)c4c3C3(CCCC3)CC4)cc2)[nH]1)C(C)C` [Example 14], for which the EC50 in the assay on HCV GT1a replicon cells came out at 0.785 nM; in the assay with HCV GT1b replicon cells it was 0.011 nM.
Taken in the same sequence, the figures for `COC(=O)N[C@H](C(=O)N1CCC[C@H]1c1ncc(C#Cc2ccc(-c3ccc(-c4cnc([C@@H]5CCCN5C(=O)[C@@H](NC(=O)OC)C(C)C)[nH]4)cc3)c3c2CCC32CCCC2)[nH]1)C(C)C` [Example 13] were 0.438 nM and 0.032 nM.
Taken in the same sequence, the figures for `COC(=O)N[C@H](C(=O)N1CCC[C@H]1c1ncc(-c2ccc(-c3ccc(-c4cnc([C@@H]5CCCN5C(=O)[C@@H](NC(=O)OC)C(C)C)[nH]4)c4c3C3(CC4)CCN(C)C3)cc2)[nH]1)C(C)C` (some centres unmarked) [Example 48] were 3.08 nM and 0.24 nM.
Taken in the same sequence, the figures for `COC(=O)N[C@H](C(=O)N1CCC[C@H]1c1ncc(-c2ccc(-c3ccc(-c4cnc([C@@H]5CCCN5C(=O)[C@@H](NC(=O)OC)C(C)C)[nH]4)c4c3C3(CC4)CCC(C)CC3)s2)[nH]1)C(C)C` (some centres unmarked) [Example 44] were 13.7 nM and 0.937 nM.
On to `COC(=O)N[C@H](C(=O)N1C2CC2C[C@H]1c1ncc(-c2ccc(-c3ccc(-c4ccc5nc([C@@H]6CC7CC7N6C(=O)[C@@H](NC(=O)OC)C(C)C)[nH]c5c4)c4c3C3(CCCC3)CC4)cc2)[nH]1)C(C)C` (some centres unmarked) [Example 32], for which the EC50 in the assay on HCV GT1a replicon cells came to 0.064 nM; with HCV GT1b replicon cells, 0.077 nM.
Taken in the same sequence, the figures for `COC(=O)N[C@H](C(=O)N1CC(C)=C[C@H]1c1ncc(-c2ccc(-c3ccc(-c4cnc([C@@H]5C=C(C)CN5C(=O)[C@@H](NC(=O)OC)C(C)C)[nH]4)c4c3C3(CCCC3)CC4)cc2)[nH]1)C(C)C` [Example 35] were 0.518 nM and 0.086 nM.
For `COC(=O)N[C@H](C(=O)N1CCC[C@H]1c1ncc(-c2ccc(-c3ccc(-c4ccc5nc([C@@H]6CCCN6C(=O)[C@@H](NC(=O)OC)C(C)C)[nH]c5c4)c4c3CCC43CCCC3)c3ccccc23)[nH]1)C(C)C` [Example 37], in that order: 3.78 nM and 0.099 nM.
Taken in the same sequence, the figures for `COC(=O)N[C@H](C(=O)N1CCC[C@H]1c1ncc(-c2ccc(-c3ccc(-c4ccc5nc([C@@H]6CCCN6C(=O)[C@@H](NC(=O)OC)C(C)C)[nH]c5c4)c4c3CCCC43CCCC3)nc2)[nH]1)C(C)C` [Example 45] were 0.107 nM and 0.034 nM.
As to `COC(=O)N[C@H](C(=O)N1CCC[C@H]1c1nc(-c2ccc(-c3ccc(-c4ccc(-c5cnc([C@@H]6CCCN6C(=O)[C@@H](NC(=O)OC)C(C)C)[nH]5)cc4)c4c3CCC43CCCC3)cc2)c[nH]1)C(C)C` [Example 6], the EC50 with HCV GT1a replicon cells was 1.37 nM; with HCV GT1b replicon cells it was 0.208 nM.
For `COC(=O)N[C@H](C(=O)N1CC(F)(F)C[C@H]1c1nc(-c2ccc(-c3ccc(-c4cnc([C@@H]5CC(F)(F)CN5C(=O)[C@@H](NC(=O)OC)C(C)C)[nH]4)c4c3C3(CCOCC3)CC4)cc2)c[nH]1)C(C)C` [Example 42], in that order: 6.89 nM and 0.109 nM.
On to `COC(=O)N[C@H](C(=O)N1CCC[C@H]1c1ncc(-c2ccc(-c3ccc(-c4cnc([C@@H]5CC6(CN5C(=O)[C@@H](NC(=O)OC)C(C)C)OCCO6)[nH]4)c4c3C3(CCCC3)CC4)cc2)[nH]1)C(C)C` [Example 31], for which the EC50 with HCV GT1a replicon cells was determined as 4.68 nM; in the assay on HCV GT1b replicon cells, 0.048 nM.
Taken in the same sequence, the figures for `COC(=O)N[C@H](C(=O)N1C2CC2C[C@H]1c1ncc(-c2ccc(-c3ccc(-c4ccc(-c5cnc([C@@H]6CC7CC7N6C(=O)[C@@H](NC(=O)OC)C(C)C)[nH]5)cc4)c4c3CCC43CCCC3)cc2)[nH]1)C(C)C` (some centres unmarked) [Example 23] were 0.334 nM and 0.012 nM.
`COC(=O)N[C@H](C(=O)N1CCC[C@H]1c1nc(-c2ccc(-c3ccc(-c4c[nH]c([C@@H]5CCCN5C(=O)[C@@H](NC(=O)OC)C(C)C)n4)c4c3C3(CCCC3)CC4)cc2)c[nH]1)C(C)C` [Example 2]: the EC50 in the assay with HCV GT1a replicon cells was found to be 0.325 nM; in the assay on HCV GT1b replicon cells, 0.009 nM.
Taken in the same sequence, the figures for `COC(=O)N[C@H](C(=O)N1CCCC[C@H]1c1ncc(-c2ccc(-c3ccc(-c4cnc([C@@H]5CCCCN5C(=O)[C@@H](NC(=O)OC)C(C)C)[nH]4)c4c3C3(CCCC3)CC4)cc2)[nH]1)C(C)C` [Example 26] were 13.7 nM and 0.088 nM.
For `COC(=O)N[C@H](C(=O)N1CCC[C@H]1c1ncc(-c2ccc(-c3ccc(-c4cnc([C@@H]5CCCN5C(=O)[C@@H](NC(=O)OC)C5CCCCC5)[nH]4)c4c3C3(CCCC3)CC4)cc2)[nH]1)C1CCCCC1` [Example 15], in that order: 0.886 nM and 0.029 nM.
Taken in the same sequence, the figures for `COC(=O)N[C@H](C(=O)N1CCC[C@H]1c1nc(-c2ccc(-c3ccc(-c4ccc5nc([C@@H]6CCCN6C(=O)[C@@H](NC(=O)OC)C(C)C)[nH]c5c4)c4c3CCC43CCCC3)c3c2CCC3)c[nH]1)C(C)C` [Example 36] were 1.08 nM and 0.089 nM.
As to `COC(=O)N[C@H](C(=O)N1CCC[C@H]1c1ncc(-c2ccc(-c3ccc(-c4ccc5nc([C@@H]6CCCN6C(=O)[C@@H](NC(=O)OC)c6ccccc6)[nH]c5c4)c4c3C3(CCCC3)CC4)cc2)[nH]1)c1ccccc1` [Example 19], the figures for the EC50 with HCV GT1a replicon cells and with HCV GT1b replicon cells were 0.376 nM and 0.011 nM, respectively.
Consider `COC(=O)N[C@@H](C)C(=O)N1CCCC[C@H]1c1ncc(-c2ccc(-c3ccc(-c4cnc([C@@H]5CCCCN5C(=O)[C@H](C)NC(=O)OC)[nH]4)c4c3C3(CCCC3)CC4)cc2)[nH]1` [Example 27], for which the EC50 with HCV GT1a replicon cells was 12.7 nM; in the assay with HCV GT1b replicon cells, 0.655 nM.
For `COC(=O)N[C@H](C(=O)N1CCC[C@H]1c1ncc(-c2ccc(-c3ccc(-c4cnc([C@@H]5CCCN5C(=O)[C@@H](NC(=O)OC)C(C)C)[nH]4)c4c3C3(CCCN3C)CC4)cc2)[nH]1)C(C)C` (some centres unmarked) [Example 49], in that order: 23.6 nM and 0.357 nM.
For `COC(=O)NC(C(=O)N1CCCC1c1ncc(-c2ccc(-c3ccc(-c4ccc5[nH]c(C6CCCN6C(=O)C(NC(=O)OC)C(C)C)nc5c4)c4c3C3(CCCC3)CC4)cc2)[nH]1)C(C)C` (centres unmarked) [Example 55], in that order: 0.073 nM and 0.028 nM.
For `COC(=O)N[C@H](C(=O)N1CCC[C@H]1C1=Nc2ccc(-c3cnc(-c4ccc(-c5cnc([C@@H]6CCCN6C(=O)[C@@H](NC(=O)OC)C(C)C)[nH]5)cc4)c4c3CCC43CCCC3)cc2S(=O)(=O)N1)C(C)C` [Example 39], in that order: 0.027 nM and 0.02 nM.
For `COC(=O)N[C@H](C(=O)N1CCC[C@H]1c1ncc(-c2ccc(-c3ccc(-c4cnc([C@@H]5CCCN5C(=O)[C@@H](NC(=O)OC)C(C)C)[nH]4)c4c3C3(CCOC3)CC4)cc2)[nH]1)C(C)C` (some centres unmarked) [Example 52], the EC50 with HCV GT1a replicon cells came to 3.67 nM; in the assay on HCV GT1b replicon cells it was 0.033 nM.
As for `COC(=O)NC(C(=O)N1CCCC1c1nc(-c2ccc(-c3ccc(-c4c[nH]c(C5CCCN5C(=O)C(NC(=O)OC)C(C)C)n4)c4c3C3(CCCC3)CC4)cc2)c[nH]1)C(C)C` (centres unmarked) [Example 54], the figures for the EC50 in the assay with HCV GT1a replicon cells and in the assay with HCV GT1b replicon cells were 3.57 nM and 0.044 nM, respectively.
For `COC(=O)N[C@H](C(=O)N1CCC[C@H]1C(=O)Nc1cccc(-c2ccc(-c3ccc(-c4cnc([C@@H]5CCCN5C(=O)[C@@H](NC(=O)OC)C(C)C)[nH]4)cc3)c3c2CCC32CCCC2)c1)C(C)C` [Example 34], in that order: 0.837 nM and 0.017 nM.
With `COC(=O)N[C@H](C(=O)N1CC2(CC2)C[C@H]1c1ncc(-c2ccc(-c3ccc(-c4ccc(-c5cnc([C@@H]6CC7(CC7)CN6C(=O)[C@@H](NC(=O)OC)C(C)C)[nH]5)cc4)c4c3CCC43CCCC3)cc2)[nH]1)C(C)C` [Example 22], the EC50 was found to be 3.65 nM in the assay on HCV GT1a replicon cells and 0.876 nM in the assay with HCV GT1b replicon cells.
Turning to `COC(=O)N[C@H](C(=O)N1C[C@@H](F)C[C@H]1c1ncc(-c2ccc(-c3ccc(-c4cnc([C@@H]5C[C@H](F)CN5C(=O)[C@@H](NC(=O)OC)C(C)C)[nH]4)c4c3C3(CCCC3)CC4)cc2)[nH]1)C(C)C` [Example 17], the EC50 in the assay on HCV GT1a replicon cells amounted to 0.475 nM; in the assay with HCV GT1b replicon cells, 0.072 nM.
For `COC(=O)N[C@H](C(=O)N1CCC[C@H]1c1ncc(C#Cc2ccc(C#Cc3cnc([C@@H]4CCCN4C(=O)[C@@H](NC(=O)OC)C(C)C)[nH]3)c3c2CCC32CCCC2)[nH]1)C(C)C` [Example 7], in that order: 0.955 nM and 0.106 nM.
For `CNC(=O)N[C@H](C(=O)N1C2CC2C[C@H]1c1nc2ccc(-c3ccc(-c4ccc(-c5cnc([C@@H]6CCCN6C(=O)[C@@H](NC(=O)OC)C(C)C)[nH]5)cc4)c4c3C3(CCCC3)CC4)cc2[nH]1)C(C)C` (some centres unmarked) [Example 11], in that order: 0.447 nM and 0.096 nM.

What is called EC50 is the concentration at which the effect is half-maximal.
